From patent publication US10457707B2, “Substituted urea depsipeptide analogs as activators of the CLPP endopeptidase” (priority 2015, dated 2019)
Values after ≈ are worked out from the molar mass of the structure shown. Like-named read-outs stand apart in the source and are kept apart here. *1 amine or outer side, *2 acyl side, *3 side chain or, on linkers, in order; H or OH if unused. Where a SMILES comes first, the peptide text is derived from it. Bridges are numbered along the chain shown (N, C = ends). [ ]: non-standard residue; d: D form. The star is where a group is joined. ξ: configuration not given here. Piperazine(2S-CO,4-Me) = CN1CCN[C@H](C(=O)O)C1; Phe(3,5-F2) = N[C@@H](Cc1cc(F)cc(F)c1)C(=O)O; NH(4-OCF3-phenyl) = FC(F)(F)Oc1ccc(N*)cc1; Morpholine(3S-CO) = O=C(O)[C@@H]1COCCN1; Pro(4S-Me) = C[C@@H]1CN[C@H](C(=O)O)C1; NH(4-Cl-2-F-phenyl) = Fc1cc(Cl)ccc1N*; Pro(4R-Me) = C[C@H]1CN[C@H](C(=O)O)C1; ξPro(4R-OH) = O=C(O)C1C[C@@H](O)CN1; ξPro(4R-Me) = C[C@H]1CNC(C(=O)O)C1; Hyp = O=C(O)[C@@H]1C[C@@H](O)CN1; NH(4-Et-phenyl) = CCc1ccc(N*)cc1; NMeT = CN[C@H](C(=O)O)[C@@H](C)O; NH(4-Me-phenyl) = Cc1ccc(N*)cc1; aThr = C[C@H](O)[C@H](N)C(=O)O; Pip = O=C(O)[C@@H]1CCCCN1; NMeA = CN[C@@H](C)C(=O)O; X2 = CN1CCc2ccc(N*)cc21; CO = O=C([*:1])[*:2]

Key:
Sa-ClpP [1] = molecular target: T1, Sa-ClpP (Staphylococcus aureus, UniProt Q2G036); experiment: Casein-BODIPY assay, second described ClpP activation method (EnzCheck Protease Assay, 384 well); format: biochemical, S. aureus; details: values marked †: second described ClpP activation assay
T1 construct: made in house; host or cells: E. coli BL21(DE3)
T1 sequence (Q2G036 1-195): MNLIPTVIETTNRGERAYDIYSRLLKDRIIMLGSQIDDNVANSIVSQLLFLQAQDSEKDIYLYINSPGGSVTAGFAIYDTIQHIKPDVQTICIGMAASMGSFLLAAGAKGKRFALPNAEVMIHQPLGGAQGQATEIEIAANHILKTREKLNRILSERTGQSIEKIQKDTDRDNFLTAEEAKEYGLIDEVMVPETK
Method: Alternatively, the assay was carried out using EnzCheck Protease Assay (Molecular Probes, Catalog # E6638). The assay was performed in black 384 well, flat bottom, low volume plates (Greiner Bio-One, Monroe, N.C., catalog #784076). 10 μL of Tris*HCl buffer, pH 8.0 with 0.01% Triton X-100 was pipetted into each well using a Well-Mate (Thermo Scientific, Waltham, Mass.). 0.4 μL test compounds or controls (2% DMSO v/v) were added to each well using a Biomek FX liquid handling robot (Beckman Coulter, Indianapolis Ind.). After addition of test compounds and controls, 10 μL of master mix containing 2 μM Sa-ClpP and 2 μM substrate (Bodipy-FL labeled casein) in Tris*HCl buffer, pH 8.0 with 0.01% (v/v) Triton X-100, was pipetted into each well. All assays were performed in triplicate, under linear velocity conditions. Increase in fluorescent signal following activation of Sa-ClpP by test compounds and controls was measured over time period of 30 mins using filters with excitation at 485±15 nm and emission at 520±25 nm on a PHERAstar FS Multilabel reader (BMG, Cary, N.C.). […] Data analysis was done by measuring rate of casein degradation over time (slopes). Computed degradation rates (slopes) were normalized to positive (ADEP4) or negative (DMSO) controls. Using nonlinear regression curve fitting EC50 values and % activation were determined using the equation “log [agonist] vs. Response-variable slope (four parameters)-symmetrical” in the program Prism 6 (GraphPad Software, La Jolla, Calif. USA, www.graphpad.com).

[2] = tested on: Staphylococcus aureus, USA 300 wherein ClpP is inactivated; experiment: Minimal inhibitory concentration assay; format: cell-based
Outline: (§1)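 Paired MICs against USA 300 and its ClpP-inactivated counterpart test whether killing runs through ClpP. All strains: two-fold broth dilutions from 200 μM final, ~10^5 cfu/mL inoculum, overnight at 37 °C in air, lowest growth-free concentration read by eye.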

[3] = tested on: Staphylococcus aureus, USA 300; experiment: Minimal inhibitory concentration assay; format: cell-based; details: USA300, read-out: Minimal Inhibitory Concentrations S. aureus USA 300
Outline: as §1

[4] = tested on: Enterococcus faecalis, ATCC 33186; experiment: Minimal inhibitory concentration assay (microbroth dilution); format: cell-based
Outline: as §1

Sa-ClpP [5] = molecular target: T1, Sa-ClpP; experiment: Sa-ClpP casein-BODIPY ClpP activation assay, method variant not marked in Table 5; format: biochemical, S. aureus
Outline: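 EC50 for activation derived by dose-response fitting of casein digestion rates, run in triplicate. Conditions: 37° C, pH 8 buffer with 200 mM KCl and 1 mM TCEP, 10 μM Sa-ClpP, 25 μg/ml BODIPY FL casein, compound at 0-1000 μM; signal at 485/528 nm followed 45 min.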

[6] = Enterococcus faecalis, ATCC33186; read-out: Minimal Inhibitory Concentrations E. faecalis ATCC 33186

Structure (SMILES)	EC50 (Sa-ClpP [1])	Minimal Inhibitory Concentrations S. aureus USA 300 ΔClpP [2]	MIC [3]	MIC [4, 6]	EC50 (Sa-ClpP [5])	MIC ([4]; Enterococcus faecalis, ATCC33186, read-out: Minimal Inhibitory Concentrations E. faecalis ATCC 33186)	EC50 (Sa-ClpP [5]; values without ** or † mark, assay variant not stated, read-out: ClpP Activation EC50)
Cc1ccc(NC(=O)N[C@@H](Cc2cc(F)cc(F)c2)C(=O)N[C@@H]2C(=O)N3C[C@H](O)CC3C(=O)N(C)[C@@H](C)C(=O)N[C@@H](C)C(=O)N3C[C@H](C)CC3C(=O)O[C@H]2C)cc1 (stereo partly drawn) [Compound 31, (S)-3-(3,5-difluorophenyl)-N-((2S,6S,9S,11aS,13R,17S,18S,20aS)-13-hydroxy-2,6,9,10,18-pentamethyl-5,8,11,16,20-pentaoxohexadecahydro-1H,5H,16H-dipyrrolo[2,1-c:2′,1′-l][1]oxa[4,7,10,13]tetraazacyclohexadecin-17-yl)-2-(3-(p-tolyl)ureido)propanamide] ({NH(4-Me-phenyl)-CO}-[Phe(3,5-F2)][aThr][ξPro(4R-OH)][NMeA]A[ξPro(4R-Me)]; ester 2-C)	370 ± 30 nM	>200 µM	1.56 µM (≈ 1.24 µg/mL)				
Cc1ccc(NC(=O)N[C@@H](Cc2cc(F)cc(F)c2)C(=O)N[C@@H]2C(=O)N3CCC[C@H]3C(=O)N(C)[C@@H]([C@@H](C)O)C(=O)N[C@@H](C)C(=O)N3C[C@@H](C)C[C@H]3C(=O)O[C@H]2C)cc1 [Compound 35, (S)-3-(3,5-difluorophenyl)-N-((2S,6S,9S,11aS,17S,18S,20aS)-9-((R)-1-hydroxyethyl)-2,6,10,18-tetramethyl-5,8,11,16,20-pentaoxohexadecahydro-1H,5H,16H-dipyrrolo[2,1-c:2′,1′-l][1]oxa[4,7,10,13]tetraazacyclohexadecin-17-yl)-2-(3-(p-tolyl)ureido)propanamide] ({NH(4-Me-phenyl)-CO}-[Phe(3,5-F2)][aThr]P[NMeT]A[Pro(4S-Me)]; ester 2-C)	480 ± 30 nM	200 µM	0.2 µM (≈ 0.162 µg/mL)				
C[C@H]1C[C@H]2C(=O)O[C@@H](C)[C@H](NC(=O)[C@H](Cc3cc(F)cc(F)c3)NC(=O)Nc3ccc(OC(F)(F)F)cc3)C(=O)N3CCC[C@H]3C(=O)N(C)[C@@H]([C@@H](C)O)C(=O)N[C@@H](C)C(=O)N2C1 [Compound 36, (S)-3-(3,5-difluorophenyl)-N-((2S,6S,9S,11aS,17S,18S,20aS)-9-((R)-1-hydroxyethyl)-2,6,10,18-tetramethyl-5,8,11,16,20-pentaoxohexadecahydro-1H,5H,16H-dipyrrolo[2,1-c:2′,1′-l][1]oxa[4,7,10,13]tetraazacyclohexadecin-17-yl)-2-(3-(4-(trifluoromethoxy)phenyl)ureido)propanamide] ({NH(4-OCF3-phenyl)-CO}-[Phe(3,5-F2)][aThr]P[NMeT]A[Pro(4S-Me)]; ester 2-C)	430 ± 10 nM	50 µM	0.1 µM (≈ 0.0882 µg/mL)				
CCc1ccc(NC(=O)N[C@@H](Cc2cc(F)cc(F)c2)C(=O)N[C@@H]2C(=O)N3CCC[C@H]3C(=O)N(C)[C@@H]([C@@H](C)O)C(=O)N[C@@H](C)C(=O)N3C[C@@H](C)C[C@H]3C(=O)O[C@H]2C)cc1 [Compound 37, (S)-3-(3,5-difluorophenyl)-2-(3-(4-ethylphenyl)ureido)-N-((2S,6S,9S,11aS,17S,18S,20aS)-9-((R)-1-hydroxyethyl)-2,6,10,18-tetramethyl-5,8,11,16,20-pentaoxohexadecahydro-1H,5H,16H-dipyrrolo[2,1-c:2′,1′-l][1]oxa[4,7,10,13]tetraazacyclohexadecin-17-yl)propanamide] ({NH(4-Et-phenyl)-CO}-[Phe(3,5-F2)][aThr]P[NMeT]A[Pro(4S-Me)]; ester 2-C)	350 ± 10 nM	100 µM	0.1 µM (≈ 0.0826 µg/mL)				
Cc1ccc(NC(=O)N[C@@H](Cc2cc(F)cc(F)c2)C(=O)N[C@@H]2C(=O)N3CCC[C@H]3C(=O)N(C)[C@@H]([C@@H](C)O)C(=O)N[C@@H](C)C(=O)N3C[C@H](C)C[C@H]3C(=O)O[C@H]2C)cc1 [Compound 38, (S)-3-(3,5-difluorophenyl)-N-((2R,6S,9S,11aS,17S,18S,20aS)-9-((R)-1-hydroxyethyl)-2,6,10,18-tetramethyl-5,8,11,16,20-pentaoxohexadecahydro-1H,5H,16H-dipyrrolo[2,1-c:2′,1′-l][1]oxa[4,7,10,13]tetraazacyclohexadecin-17-yl)-2-(3-(p-tolyl)ureido)propanamide] ({NH(4-Me-phenyl)-CO}-[Phe(3,5-F2)][aThr]P[NMeT]A[Pro(4R-Me)]; ester 2-C)	330 ± 10 nM	200 µM	0.1 µM (≈ 0.0812 µg/mL)				
CCc1ccc(NC(=O)N[C@@H](Cc2cc(F)cc(F)c2)C(=O)N[C@@H]2C(=O)N3C[C@H](O)C[C@H]3C(=O)N3CCOC[C@H]3C(=O)N[C@@H](C)C(=O)N3C[C@H](C)C[C@H]3C(=O)O[C@H]2C)cc1 [Compound 320, (S)-3-(3,5-difluorophenyl)-2-(3-(4-ethylphenyl)ureido)-N-((6aS,8R,12S,13S,15aS,17R,21S,23aS)-8-hydroxy-13,17,21-trimethyl-6,11,15,20,23-pentaoxooctadecahydro-6H,11H,15H-[1,4]oxazino[3,4-i]dipyrrolo[2,1-c:2′,1′-l][1]oxa[4,7,10,13]-tetraazacyclohexadecin-12-yl)propanamide] ({NH(4-Et-phenyl)-CO}-[Phe(3,5-F2)][aThr][Hyp][Morpholine(3S-CO)]A[Pro(4R-Me)]; ester 2-C)		0.7812 µM	0.781 µM (≈ 0.656 µg/mL)	0.078 µM (≈ 0.0655 µg/mL)	330 ± 100 nM		
C[C@@H]1C[C@H]2C(=O)O[C@@H](C)[C@H](NC(=O)[C@H](Cc3cc(F)cc(F)c3)NC(=O)Nc3ccc4c(c3)N(C)CC4)C(=O)N3CCC[C@H]3C(=O)N3CCCC[C@H]3C(=O)N[C@@H](C)C(=O)N2C1 [Compound 321, (S)-3-(3,5-difluorophenyl)-2-(3-(1-methylindolin-6-yl)ureido)-N-((2R,6S,8aS,14aS,20S,21S,23aS)-2,6,21-trimethyl-5,8,14,19,23-pentaoxooctadecahydro-1H,5H,14H,19H-pyrido[2,1-i]dipyrrolo[2,1-c:2′,1′-l][1]oxa[4,7,10,13]tetraazacyclo-hexadecin-20-yl)propanamide] ({X2-CO}-[Phe(3,5-F2)][aThr]P[Pip]A[Pro(4R-Me)]; ester 2-C)		<0.098 µM	< 0.098 µM			0.078 µM (≈ 0.0662 µg/mL)	520 ± 20 nM
C[C@@H]1C[C@H]2C(=O)O[C@@H](C)[C@H](NC(=O)[C@H](Cc3cc(F)cc(F)c3)NC(=O)Nc3ccc(Cl)cc3F)C(=O)N3C[C@H](O)C[C@H]3C(=O)N3CCCC[C@H]3C(=O)N[C@@H](C)C(=O)N2C1 [Compound 329, (S)-2-(3-(4-chloro-2-fluorophenyl)ureido)-3-(3,5-difluorophenyl)-N-((2R,6S,8aS,14aS,16R,20S,21S,23aS)-16-hydroxy-2,6,21-trimethyl-5,8,14,19,23-pentaoxooctadecahydro-1H,5H,14H,19H-pyrido[2,1-i]dipyrrolo[2,1-c:2′,1′-l][1]oxa[4,7,10,13]tetraazacyclo-hexadecin-20-yl)propanamide] ({NH(4-Cl-2-F-phenyl)-CO}-[Phe(3,5-F2)][aThr][Hyp][Pip]A[Pro(4R-Me)]; ester 2-C)		50 µM	0.039 µM (≈ 0.0336 µg/mL)	0.039 µM (≈ 0.0336 µg/mL)	400 ± 20 nM		
C[C@@H]1C[C@H]2C(=O)OC[C@H](NC(=O)[C@H](Cc3cc(F)cc(F)c3)NC(=O)Nc3ccc(Cl)cc3F)C(=O)N3CCC[C@H]3C(=O)N3CCN(C)C[C@H]3C(=O)N[C@@H](C)C(=O)N2C1 [Compound 330, (S)-2-(3-(4-chloro-2-fluorophenyl)ureido)-3-(3,5-difluorophenyl)-N-((6aS,12S,15aS,17R,21S,23aS)-2,17,21-trimethyl-6,11,15,20,23-pentaoxooctadecahydro-2H,6H,11H,15H-pyrazino[2,1-i]dipyrrolo[2,1-c:2′,1′-l][1]oxa[4,7,10,13]tetraazacyclohexadecin-12-yl)propanamide] ({NH(4-Cl-2-F-phenyl)-CO}-[Phe(3,5-F2)]SP[Piperazine(2S-CO,4-Me)]A[Pro(4R-Me)]; ester 2-C)		>20 µM	0.156 µM (≈ 0.132 µg/mL)	< 0.02 µM	290 ± 20 nM		
